Tested on: hepatocytes
Assay: Seq-Well scRNA-Seq of hepatocytes after APAP overdose (signature scores, DEG vs untreated)
Format: in vivo, mouse
[1] = time point A6 vs untreated (UT)

CC(=O)Nc1ccc(O)cc1 [APAP, acetaminophen]
avg_logFC Mrpl42 [1]: −0.2845 | avg_logFC Mrps18c [1]: −0.3663 | avg_logFC Msn [1]: 0.2602 | avg_logFC Mup2 [1]: −0.5045 | avg_logFC Mvd [1]: −0.2704 | avg_logFC Myo1b [1]: 0.2624 | avg_logFC Naprt1 [1]: −0.3381 | avg_logFC Ndufa1 [1]: −0.3645 | avg_logFC Ndufb3 [1]: −0.3272 | avg_logFC Ndufb8 [1]: −0.3481 | avg_logFC Ndufc1 [1]: −0.3444 | avg_logFC Ndufs4 [1]: −0.3132 | avg_logFC Ndufs8 [1]: −0.3614 | avg_logFC Ndufv3 [1]: −0.3971 | avg_logFC Nedd8 [1]: −0.3564 | avg_logFC Nedd41 [1]: 0.2812 | avg_logFC Net1 [1]: 0.3479 | avg_logFC Nop10 [1]: −0.2919 | avg_logFC Nrp1 [1]: 0.3608 | avg_logFC Nucks1 [1]: 0.3558 | avg_logFC Nudt4 [1]: 0.2542 | avg_logFC Oaz1 [1]: −0.3472 | avg_logFC Otc [1]: −0.299 | avg_logFC Pacsin2 [1]: 0.3708 | avg_logFC Palld [1]: 0.3414 | avg_logFC Pank1 [1]: −0.3527 | avg_logFC Paqr9 [1]: −0.3323 | avg_logFC Pet100 [1]: −0.28 | avg_logFC Phc2 [1]: 0.312 | avg_logFC Pi4k2a [1]: 0.3536 | avg_logFC Pik3c2a [1]: 0.3249 | avg_logFC Plk3 [1]: 0.4166 | avg_logFC Pnkd [1]: −0.2928 | avg_logFC Ppp1r12a [1]: 0.3563 | avg_logFC Prdx5 [1]: −0.2821 | avg_logFC Proc [1]: −0.2707 | avg_logFC Psmb1 [1]: −0.3585 | avg_logFC Psmb3 [1]: −0.3303 | avg_logFC Psmb6 [1]: −0.3194 | avg_logFC Ptp4a1 [1]: 0.2627 | avg_logFC Ptpn2 [1]: 0.2734 | avg_logFC Ptpn12 [1]: 0.3342 | avg_logFC Purb [1]: 0.3525 | avg_logFC Pvrl2 [1]: −0.2613 | avg_logFC Pxk [1]: 0.2819 | avg_logFC Pxmp2 [1]: −0.3671 | avg_logFC Rab6a [1]: 0.3234 | avg_logFC Rbm25 [1]: 0.4215 | avg_logFC Rexo2 [1]: −0.3263 | avg_logFC Rlim [1]: 0.3102 | avg_logFC Rnaseh2c [1]: −0.3257 | avg_logFC Romo1 [1]: −0.3359 | avg_logFC Rps3 [1]: −0.3493 | avg_logFC Rps9 [1]: −0.3718 | avg_logFC Rps10 [1]: −0.3369 | avg_logFC Rps21 [1]: −0.3645 | avg_logFC Rsl1d1 [1]: 0.3461 | avg_logFC S100a1 [1]: −0.3743 | avg_logFC Sar1b [1]: −0.3079 | avg_logFC Sbno1 [1]: 0.3671 | avg_logFC Sc4mol [1]: −0.3262 | avg_logFC Scaf11 [1]: 0.3598 | avg_logFC Scd1 [1]: −0.4661 | avg_logFC Sdhb [1]: −0.2896 | avg_logFC Sdhd [1]: −0.3353 | avg_logFC Sdr9c7 [1]: −0.26 | avg_logFC Sdsl [1]: 0.2593 | avg_logFC Sec61b [1]: −0.2903 | avg_logFC Selk [1]: −0.3383 | avg_logFC Sf1 [1]: 0.3023 | avg_logFC Sfpq [1]: 0.394 | avg_logFC Sgk1 [1]: 0.2843 | avg_logFC Shb [1]: 0.3152 | avg_logFC Sigmar1 [1]: −0.3055 | avg_logFC Sirt3 [1]: −0.346 | avg_logFC Slc2a2 [1]: −0.3123 | avg_logFC Slc10a1 [1]: −0.3258 | avg_logFC Slco1a1 [1]: −0.3628 | avg_logFC Slco1a4 [1]: 0.3137 | avg_logFC Slirp [1]: −0.3085 | avg_logFC Smap2 [1]: 0.3489 | avg_logFC Smdt1 [1]: −0.3673 | avg_logFC Smg1 [1]: 0.335 | avg_logFC Srsf11 [1]: 0.4012 | avg_logFC Stbd1 [1]: −0.2732 | avg_logFC Stk17b [1]: 0.2911 | avg_logFC Stom [1]: 0.3232 | avg_logFC Sult1d1 [1]: −0.3165 | avg_logFC Tbl1xr1 [1]: 0.3075 | avg_logFC Tcea3 [1]: −0.355 | avg_logFC Tceb2 [1]: −0.3207 | avg_logFC Tgm2 [1]: 0.3993 | avg_logFC Tgoln1 [1]: 0.2657 | avg_logFC Timm8b [1]: −0.3936 | avg_logFC Tjp1 [1]: 0.2862 | avg_logFC Tm7sf2 [1]: −0.3164 | avg_logFC Tmbim6 [1]: −0.2711 | avg_logFC Tmem37 [1]: −0.2822 | avg_logFC Tmem86b [1]: −0.2582 | avg_logFC Tmem106b [1]: 0.2802 | avg_logFC Tmem147 [1]: −0.2838 | avg_logFC Tmem150a [1]: −0.2535 | avg_logFC Tmem160 [1]: −0.339 | avg_logFC Tmem242 [1]: −0.2725 | avg_logFC Tmem243 [1]: −0.3791 | avg_logFC Tmem258 [1]: −0.2769 | avg_logFC Tnks2 [1]: 0.3176 | avg_logFC Tob1 [1]: −0.3387 | avg_logFC Tpr [1]: 0.4409 | avg_logFC Tsc22d1 [1]: −0.2997 | avg_logFC Tspo [1]: −0.3157 | avg_logFC Txn1 [1]: −0.3091 | avg_logFC Ubl5 [1]: −0.3033 | avg_logFC Ucp2 [1]: 0.2612 | avg_logFC Ugt2a3 [1]: −0.3075 | avg_logFC Uqcc2 [1]: −0.3269 | avg_logFC Wdr43 [1]: 0.3438 | avg_logFC Yap1 [1]: 0.3281 | avg_logFC Zfp683 [1]: −0.4217 | avg_logFC Zyx [1]: 0.2983 | avg_logFC mmu-mir-6236 [1]: 0.5206 | Adck3 pct.1 (time point A24): 0.68 | Arhgap5 pct.1 (time point A24): 0.566 | Arhgef12 pct.1 (time point A24): 0.541 | Arl5a pct.1 (time point A24): 0.459 | Atp1a1 pct.1 (time point A24): 0.532 | Atp5e pct.1 (time point A24): 0.688 | Atp5f1 pct.1 (time point A24): 0.8 | Atp6v1f pct.1 (time point A24): 0.244 | Atp11c pct.1 (time point A24): 0.649 | Atp13a3 pct.1 (time point A24): 0.546 | Azin1 pct.1 (time point A24): 0.46 | Bnip3 pct.1 (time point A24): 0.39 | Brd2 pct.1 (time point A24): 0.512 | Bzw1 pct.1 (time point A24): 0.487 | Cald1 pct.1 (time point A24): 0.79 | Caprin1 pct.1 (time point A24): 0.567 | Ces3b pct.1 (time point A24): 0.683 | Copb2 pct.1 (time point A24): 0.595 | Copz1 pct.1 (time point A24): 0.501 | Cox7b pct.1 (time point A24): 0.768 | Cpne3 pct.1 (time point A24): 0.456 | Ctnnb1 pct.1 (time point A24): 0.566 | Cyp4a14 pct.1 (time point A24): 0.245 | Cyp27a1 pct.1 (time point A24): 0.759 | Ddost pct.1 (time point A24): 0.493 | Dennd5b pct.1 (time point A24): 0.476 | Deptor pct.1 (time point A24): 0.583 | Dnajb9 pct.1 (time point A24): 0.373 | Dnajb11 pct.1 (time point A24): 0.557 | Eci1 pct.1 (time point A24): 0.581 | Edem1 pct.1 (time point A24): 0.566 | Ehhadh pct.1 (time point A24): 0.552 | Eif4b pct.1 (time point A24): 0.542 | Ell2 pct.1 (time point A24): 0.552 | Eprs pct.1 (time point A24): 0.587 | Erbb2ip pct.1 (time point A24): 0.482 | Erp44 pct.1 (time point A24): 0.469 | Esd pct.1 (time point A24): 0.67 | Fam120a pct.1 (time point A24): 0.51 | Fasn pct.1 (time point A24): 0.449 | Fcgrt pct.1 (time point A24): 0.461 | Gch1 pct.1 (time point A24): 0.502 | Gm23935 pct.1 (time point A24): 0.919 | Gm24245 pct.1 (time point A24): 0.369 | Gpam pct.1 (time point A24): 0.329 | Grlf1 pct.1 (time point A24): 0.413 | Gstm3 pct.1 (time point A24): 0.293 | H6pd pct.1 (time point A24): 0.675 | Id3 pct.1 (time point A24): 0.278 | Ide pct.1 (time point A24): 0.604 | Iqgap2 pct.1 (time point A24): 0.748 | Ireb2 pct.1 (time point A24): 0.469 | Jak1 pct.1 (time point A24): 0.482 | Lasp1 pct.1 (time point A24): 0.361 | Lgr4 pct.1 (time point A24): 0.399 | Lpin2 pct.1 (time point A24): 0.7 | Macf1 pct.1 (time point A24): 0.349 | Magt1 pct.1 (time point A24): 0.52 | Man2a1 pct.1 (time point A24): 0.675 | Mbnl1 pct.1 (time point A24): 0.428 | Met pct.1 (time point A24): 0.434 | Mt1 pct.1 (time point A24): 0.41 | Mtss1 pct.1 (time point A24): 0.581 | Nadk2 pct.1 (time point A24): 0.539 | Narf pct.1 (time point A24): 0.411 | Ndufa6 pct.1 (time point A24): 0.692 | Ndufb6 pct.1 (time point A24): 0.636 | Ndufc2 pct.1 (time point A24): 0.465 | Nop10 pct.1 (time point A24): 0.227 | Nr1i3 pct.1 (time point A24): 0.237 | Nrp1 pct.1 (time point A24): 0.426 | Osbp19 pct.1 (time point A24): 0.569 | Osbpl1a pct.1 (time point A24): 0.592 | Ostc pct.1 (time point A24): 0.514 | Pik3c2a pct.1 (time point A24): 0.36 | Plin5 pct.1 (time point A24): 0.181 | Prdx4 pct.1 (time point A24): 0.47 | Prdx5 pct.1 (time point A24): 0.731 | Prkaa2 pct.1 (time point A24): 0.451 | Prox1 pct.1 (time point A24): 0.477 | Proz pct.1 (time point A24): 0.622
